From ChEMBL document CHEMBL1201862, “PubChem BioAssay data set” (2004) come the findings set out here.

What all share (assay): NCI tumour cell line growth inhibition, 48 h
The test system of assay [1] is COLO 205.
Assay [2] relates to CCRF-CEM.
The test system of assay [3] is SF-539.
Assay [4] concerns NCI-H522.
The subject of assay [5] is SF-268.
Assay [6] deals with MDA-MB-231.
For assay [7], the system named is LOX IMVI.
In assay [8] the test system is MDA-MB-435.
The test system of assay [9] is SW-620.
Assay [10] concerns RPMI-8226.
The subject of assay [11] is ACHN.
For assay [12], the system named is NCI-H23.
In assay [13] the test system is BT-549.
In assay [14] the test system is SNB-19.
Assay [15] deals with T47D.
Assay [16] concerns A549.
The subject of assay [17] is SK-MEL-5.
For assay [18], the system named is K562.
The test system of assay [19] is SR.
Assay [20] has as its system A498.

Molecules are shown by their SMILES.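 Interpolation was linear, between the two tested concentrations surrounding the appropriate level; five concentrations were tested over 48 hours in 96-well plates. Here, GI50 denotes the concentration required for 50% inhibition of growth.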 The source made the active and inactive calls. No stated cut-off is given here; in the data, active = GI50 up to about 1.1 µM and inactive = higher. Some results are limits rather than exact numbers.

With `Clc1ccc(Oc2ccc(/N=C/c3ccc(Cl)cc3Cl)cc2Cl)cc1`, the GI50 in assay [1] is 64.7 µM (inactive); in assay [2], 4.29 µM (inactive); in [3], 23.6 µM (inactive); in assay [4], 25.2 µM (inactive); in assay [5], 31.8 µM (inactive); in assay [6], 51.3 µM (inactive). The GI50 is 28.3 µM (inactive) in assay [7]; 18.5 µM (inactive) in [8]; 33 µM (inactive) in assay [9]; 9.2 µM (inactive) in assay [10]; > 100 µM (inactive) in [11]; 40.8 µM (inactive) in [12]. Moreover, the GI50 was 29.2 µM (inactive) in [13]; 41.6 µM (inactive) in assay [14]; 43.6 µM (inactive) in assay [15]; 64.6 µM (inactive) in [16]; 36.1 µM (inactive) in assay [17].

Regarding `Cc1c(N2C(=O)C(Cl)C2/C=C/c2ccccc2)c(=O)n(-c2ccccc2)n1C` (configuration not stated), the GI50 in assay [1] is 14.1 µM (inactive); in assay [2], 16.1 µM (inactive); in assay [3], 22.4 µM (inactive); in assay [4], 14.4 µM (inactive); in assay [5] it was 29.6 µM (inactive); in assay [6], 25.4 µM (inactive). In addition, the GI50 in assay [7] is 17.3 µM (inactive); in assay [8], 12.1 µM (inactive); in [9], 24.2 µM (inactive); in assay [10] it was 11.3 µM (inactive); in assay [11], 20.3 µM (inactive); in assay [12] it was 7.59 µM (inactive). Further, the GI50 is 33.4 µM (inactive) in assay [13]; 6.58 µM (inactive) in assay [18]; 19.8 µM (inactive) in assay [15]; 17.5 µM (inactive) in [19]; 26.4 µM (inactive) in assay [16]; 15.8 µM (inactive) in [17].

Regarding `CCCCC1Nc2ccccc2-c2ccnc(Cl)c21` (configuration not stated), the GI50 in assay [1] was 15.7 µM (inactive); in assay [2], 19.1 µM (inactive); in assay [3], 19.2 µM (inactive); in [4] it was 11.7 µM (inactive); in assay [5] it was 23.1 µM (inactive); in [6], 17.1 µM (inactive). The GI50 was 16.6 µM (inactive) in assay [7]; 16.1 µM (inactive) in assay [8]; 21.2 µM (inactive) in assay [9]; 12.2 µM (inactive) in [10]; 20.8 µM (inactive) in [11]; 16.8 µM (inactive) in [20]. Further, the GI50 was 16.5 µM (inactive) in [12]; 18 µM (inactive) in assay [13]; 20.9 µM (inactive) in assay [18]; 24.1 µM (inactive) in assay [14]; 18.7 µM (inactive) in assay [19]; 28.1 µM (inactive) in assay [16]. In addition, the GI50 in assay [17] was 15.2 µM (inactive).

With `O=C1CCC(N2C(=O)c3ccccc3C2=O)C(=O)N1` (configuration not stated) [THALIDOMIDE], the GI50 in [1], in [2], in assay [4], in [5], in assay [8] and in assay [9] was > 100 µM (inactive) in each case. Also, the GI50 in assay [10], in assay [11], in assay [12], in [13], in assay [18] and in assay [14] was > 100 µM (inactive) each time. The GI50 in assay [15], in [19], in [16] and in assay [17] was > 100 µM (inactive) in each case.

As for `CC1C(=O)OCC2=CCN3CCC(OC(=O)C(C)C1(C)O)C23` (configuration not stated), the GI50 in [1], in [2], in assay [3], in [4], in [5] and in [6] was > 100 µM (inactive) in each case. Besides, the GI50 in [7], in [8], in assay [9], in assay [10], in assay [11] and in assay [20] was > 100 µM (inactive) in each case. Besides, the GI50 in assay [12], in [13], in assay [18], in assay [14], in assay [15] and in assay [16] was > 100 µM (inactive) in each case. Further, the GI50 in assay [17] was > 100 µM (inactive).

For `CC#CCCCC1(C)CCCNC1=S` (configuration not stated), the GI50 in assay [2], in [3], in [4], in assay [5], in assay [6] and in assay [7] was > 10 µM (inactive) in each case. In addition, the GI50 in assay [8], in assay [9], in assay [11], in assay [12], in assay [13] and in assay [18] was > 10 µM (inactive) in each case. For the same compound, the GI50 in assay [14], in [15], in assay [19], in assay [16] and in [17] was > 10 µM (inactive) each time.

In the case of `CC1(C)C2CCC(O)(C2)C1N` (configuration not stated), the GI50 in [1], in assay [2], in [3], in assay [5], in assay [6] and in assay [7] was > 100 µM (inactive) each time. Moreover, the GI50 in assay [8], in assay [9], in [10], in assay [11], in [12] and in assay [13] was > 100 µM (inactive) in each case. For the same compound, the GI50 in [18], in assay [14], in assay [15], in assay [19], in assay [16] and in assay [17] was > 100 µM (inactive) throughout.

As for `O=C(C(Cl)Cl)N(O)c1ccccc1OCc1ccccc1`, the GI50 in assay [1] is 17 µM (inactive); in assay [2], 1.79 µM (inactive); in [3], 31.3 µM (inactive); in assay [4], 25.6 µM (inactive); in assay [5], 73.3 µM (inactive); in [6], 44.8 µM (inactive). Further, the GI50 was 43.9 µM (inactive) in [7]; 43.2 µM (inactive) in assay [8]; 24.8 µM (inactive) in [9]; 34.2 µM (inactive) in [10]; 32.8 µM (inactive) in assay [11]; > 100 µM (inactive) in [12]. The GI50 in [13] was 0.0395 µM (active); in assay [18] it was 37.6 µM (inactive); in [14] it was 57.7 µM (inactive); in [15], 19.1 µM (inactive); in assay [19], 22.9 µM (inactive); in assay [16], 33.8 µM (inactive).
